Source: patent US9199981B2 (NOVARTIS AG, priority 2011, dated 2015)

Biological target: c-kit (Homo sapiens (Human), UniProt P10721)
Experiment: Mo7e cell proliferation assay (SCF dependent proliferation)
Assay type: cell-based
Settings: Mo7e cells stimulated with human recombinant SCF, 48 hours
Experimental: Compounds of Formula (I) and Formula (II) provided herein were assayed to measure their capacity to inhibit c-kit and PDGFR kinases using the appropriate assay described below: c-Kit inhibition was evaluated using the Mo7e cell proliferation assay, and PDGFR inhibition was evaluated using the Rat A10 cell proliferation assay and the Human TG/HA-VSMC cell proliferation assay.
Mo7e Cell Proliferation Assay
The compounds of Table 1 and Table 2 were tested for inhibition of SCF dependent proliferation using human Mo7e cells which endogenously express c-kit in a 384 well format. […] After 48 hours of incubation at 37° C., cell viability was measured by adding 25 uL of CellTiter Glo (Promega) to the cells and the luminescence was measured by a CLIPR CCD camera (Molecular Devices).
The IC50 value is given as that concentration of the test compound in question that provoke a response halfway between the baseline and maximum responses.

Sequence of c-kit (P10721 26-976): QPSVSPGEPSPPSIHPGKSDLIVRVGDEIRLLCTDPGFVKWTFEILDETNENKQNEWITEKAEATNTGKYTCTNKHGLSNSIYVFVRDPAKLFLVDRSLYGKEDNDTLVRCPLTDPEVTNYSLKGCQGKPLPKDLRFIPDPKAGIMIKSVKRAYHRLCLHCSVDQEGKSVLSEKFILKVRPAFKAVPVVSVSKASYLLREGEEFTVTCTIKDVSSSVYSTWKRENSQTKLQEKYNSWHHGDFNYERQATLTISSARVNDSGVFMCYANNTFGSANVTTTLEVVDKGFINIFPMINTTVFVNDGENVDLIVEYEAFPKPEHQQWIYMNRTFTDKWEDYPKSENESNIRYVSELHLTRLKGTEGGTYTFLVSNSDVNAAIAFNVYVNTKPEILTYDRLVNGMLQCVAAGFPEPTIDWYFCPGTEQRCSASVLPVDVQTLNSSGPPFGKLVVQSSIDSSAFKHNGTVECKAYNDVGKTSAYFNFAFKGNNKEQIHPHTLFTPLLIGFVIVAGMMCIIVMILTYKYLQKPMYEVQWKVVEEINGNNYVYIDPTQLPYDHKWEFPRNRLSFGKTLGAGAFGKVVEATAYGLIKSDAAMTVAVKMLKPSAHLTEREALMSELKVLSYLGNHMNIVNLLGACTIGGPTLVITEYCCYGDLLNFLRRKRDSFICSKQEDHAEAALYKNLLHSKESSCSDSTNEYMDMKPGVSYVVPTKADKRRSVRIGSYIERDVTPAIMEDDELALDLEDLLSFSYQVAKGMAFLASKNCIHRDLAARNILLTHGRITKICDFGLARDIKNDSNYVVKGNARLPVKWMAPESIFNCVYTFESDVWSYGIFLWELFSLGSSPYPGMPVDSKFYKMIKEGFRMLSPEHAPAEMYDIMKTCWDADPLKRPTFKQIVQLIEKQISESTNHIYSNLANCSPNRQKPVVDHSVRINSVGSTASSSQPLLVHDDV

Row | Structure (SMILES) | IC50 (1% FBS) [nM] | IC50 (20% FBS (values marked *)) [nM]
1 | Cc1ccn2c(C(=O)Nc3cc(-c4noc(C5CC(F)C5)n4)ccc3C)cnc2c1 (stereo not drawn) [F111] | 46 | 
2 | Cc1ccc(-c2noc([C@H]3C[C@@H](N4CCN(C)CC4)C3)n2)cc1NC(=O)c1cnc2ccccn12 [F125] | 393 | 
3 | Cc1ccn2c(C(=O)Nc3cc(-c4noc([C@H]5C[C@@H]5F)n4)ccc3C)cnc2c1 [F106] | 52 | 
4 | Cc1ccc(-c2noc(C3CCC3)n2)cc1NC(=O)c1cnc2ccccn12 [F57] | 23 | 
5 | Cc1ccc(-c2noc([C@H]3C[C@H](NS(C)(=O)=O)C3)n2)cc1NC(=O)c1cnc2ccccn12 [F129] | 143 | 
6 | Cc1ccc(-c2noc(C3CC(F)(F)C3)n2)cc1NC(=O)c1cnc2cc(N3CCOCC3)ccn12 [F59, N-(5-(5-(3,3-difluorocyclobutyl)-1,2,4-oxadiazol-3-yl)-2-methylphenyl)-7-morpholinoimidazo[1,2-a]pyridine-3-carboxamide] | 7 | 
7 | COC(=O)NC1CC(c2nc(-c3ccc(C)c(NC(=O)c4cnc5ccccn45)c3)no2)C1 (stereo not drawn) [F142] | 148 | 
8 | Cc1ccc(-c2noc(C3CC(F)(F)C3)n2)cc1NC(=O)c1cnc2ccc(-c3ccn(C)n3)cn12 [F43] | 12 | 
9 | Cc1ccc(-c2noc(C3(O)CCC3)n2)cc1NC(=O)c1cnc2ccccn12 [F167] | 144 | 
10 | COCCOCc1ccc2ncc(C(=O)Nc3cc(-c4noc(C5CC(F)(F)C5)n4)ccc3C)n2c1 [F146] | 105 | 
11 | Cc1ccc(-c2noc(C3(O)CC3)n2)cc1NC(=O)c1cnc2ccccn12 [F148] | 305 | 
12 | Cc1ccc(-c2noc(C3CC(F)(F)C3)n2)c(C)c1NC(=O)c1cnc2ccccn12 [F160] | 293 | 
13 | CCON=C1CC(c2nc(-c3ccc(C)c(NC(=O)c4cnc5ccccn45)c3)no2)C1 (stereo not drawn) [F14] | 12 | 
14 | Cc1ccc(-c2noc(C3CC3(F)F)n2)cc1NC(=O)c1cnc2ccc(COCC(F)(F)F)cn12 (stereo not drawn) [F85] | 69 | 
15 | O=C(Nc1cc(-c2noc(C3CCC3)n2)ccc1F)c1cnc2ccccn12 [F152] | 151 | 
16 | Cc1ccc(-c2noc([C@@H]3C[C@H]3F)n2)cc1NC(=O)c1cnc2ccccn12 [F113, N-(5-(5-((1S,2R)-2-fluorocyclopropyl)-1,2,4-oxadiazol-3-yl)-2-methylphenyl)imidazo[1,2-a]pyridine-3-carboxamide] | 56 | 
17 | Cc1ccc(-c2noc(C3CC(F)(F)C3)n2)cc1NC(=O)c1cnc2cc(CC(C)(C)O)ccn12 [F155] | 390 | 
18 | Cc1ccn2c(C(=O)Nc3cc(-c4noc([C@H]5C[C@](O)(C(F)(F)F)C5)n4)ccc3C)cnc2c1 [F89] | 25 | 
19 | Cc1ccc(-c2noc([C@H]3C[C@@H](N4CCOCC4)C3)n2)cc1NC(=O)c1cnc2ccccn12 [F124] | 257 | 
20 | COCC(=O)NC1(c2nc(-c3ccc(C)c(NC(=O)c4cnc5ccccn45)c3)no2)CC1 [F132] | 554 | 
21 | Cc1ccc(-c2noc(C3CC(F)(F)C3)n2)cc1NC(=O)c1cnc2ccc(-c3cnn(CCN4CCOCC4)c3)cn12 [F50] | 26 | 

Row | Structure (SMILES) | IC50 (1% FBS) [nM] | IC50 (20% FBS (values marked *)) [nM]
22 | Cc1ccc(-c2noc([C@@H]3C[C@@H]3F)n2)cc1NC(=O)c1cnc2ccccn12 [F101] | 67 | 
23 | Cc1ccc(-c2noc([C@@H]3CC3(F)F)n2)cc1NC(=O)c1cnc2ccccn12 (stereo in doubt) [F88, N-(5-(5-(2,2-difluorocyclopropyl)-1,2,4-oxadiazol-3-yl)-2-methylphenyl)imidazo[1,2-a]pyridine-3-carboxamide] | 66 | 
24 | Cc1ccc(-c2noc([C@H]3C[C@H](N)C3)n2)cc1NC(=O)c1cnc2ccccn12 [F17] | 109 | 
25 | Cc1ccc(-c2noc(C3CC(F)(F)C3)n2)cc1NC(=O)c1cnc2cc(N3CCCC3=O)ccn12 [F76] | 37 | 
26 | Cc1ccc(-c2noc(C3(C(F)(F)F)CC3)n2)cc1NC(=O)c1cnc2ccccn12 [F119] | 162 | 
27 | Cc1nnc(-c2ccc3ncc(C(=O)Nc4cc(-c5noc(C6CC(F)(F)C6)n5)ccc4C)n3c2)[nH]1 [F79, N-(5-(5-(3,3-difluorocyclobutyl)-1,2,4-oxadiazol-3-yl)-2-methylphenyl)-6-(5-methyl-1H-1,2,4-triazol-3-yl)imidazo[1,2-a]pyridine-3-carboxamide] | 55 | 
28 | Cc1ccc(-c2noc(C3(NS(C)(=O)=O)CCC3)n2)cc1NC(=O)c1cnc2ccccn12 [F28] | 95 | 
29 | Cc1ccc(-c2noc(C3CC(=O)C3)n2)cc1NC(=O)c1cnc2ccccn12 [F121] | 140 | 
30 | Cc1ccn2c(C(=O)Nc3cc(-c4noc(COC5CC(F)(F)C5(F)F)n4)ccc3C)cnc2c1 (stereo not drawn) [F102] | 9 | 
31 | Cc1ccc(-c2noc(C3CC(F)(F)C3)n2)cc1NC(=O)c1cnc2cc(C3CCN(S(C)(=O)=O)CC3)ccn12 [F49, N-(5-(5-(3,3-difluorocyclobutyl)-1,2,4-oxadiazol-3-yl)-2-methylphenyl)-7-(1-(methylsulfonyl)piperidin-4-yl)imidazo[1,2-a]pyridine-3-carboxamide] | 33 | 
32 | Cc1ccc(-c2nc(C3CC(F)(F)C3)no2)cc1NC(=O)c1cnc2ccccn12 [F1] | 24 | 
33 | Cc1ccc(-c2noc(C3CC(F)(F)C3)n2)cc1NC(=O)c1cnc2ccc(COCCO)cn12 [F38] | 25 | 
34 | Cc1cn(-c2ccc3ncc(C(=O)Nc4cc(-c5noc(C6CC(F)(F)C6)n5)ccc4C)n3c2)cn1 [F95] | 77 | 
35 | Cc1ccc(-c2noc(C3CC(F)(F)C3)n2)cc1NC(=O)c1cnc2ccc(-n3ccnc3)cn12 [F82] | 78 | 
36 | Cc1ccc(-c2noc(C3CC(F)(F)C3)n2)cc1NC(=O)c1cnc2ccc(-c3cn[nH]c3)cn12 [F40, N-(5-(5-(3,3-difluorocyclobutyl)-1,2,4-oxadiazol-3-yl)-2-methylphenyl)-6-(1H-pyrazol-4-yl)imidazo[1,2-a]pyridine-3-carboxamide] | 9 | 
37 | Cc1ccc(-c2noc(C3(NS(C)(=O)=O)CC3)n2)cc1NC(=O)c1cnc2ccccn12 [F22] | 56 | 
38 | Cc1ccc(-c2noc(C3CC4(C3)OC[C@H](C)O4)n2)cc1NC(=O)c1cnc2ccccn12 (stereo partly drawn) [F12] | 12 | 
39 | Cc1ccc(-c2noc(C3CC(F)(F)C3)n2)cc1NC(=O)c1cnc2ccc(-c3cnn(CCO)c3)cn12 [F41] | 11 | 
40 | Cc1ccc(-c2noc(C3CCC(F)(F)CC3)n2)cc1NC(=O)c1cnc2ccccn12 [F5] | 24 | 
41 | COCCOCc1ccc2ncc(C(=O)Nc3cc(-c4noc(C5CC(F)(F)C5)n4)ccc3C)n2c1 [F164] | 101 | 
42 | Cc1nnc(-c2ccc3ncc(C(=O)Nc4cc(-c5noc(C6CC(F)(F)C6)n5)ccc4F)n3c2)[nH]1 [F61, N-(5-(5-(3,3-difluorocyclobutyl)-1,2,4-oxadiazol-3-yl)-2-fluorophenyl)-6-(5-methyl-4H-1,2,4-triazol-3-yl)imidazo[1,2-a]pyridine-3-carboxamide] | 154 | 

Row | Structure (SMILES) | IC50 (1% FBS) [nM] | IC50 (20% FBS (values marked *)) [nM]
43 | Cc1ccc(-c2noc(C3CC(=O)C3)n2)cc1NC(=O)c1cnc2ccccn12 [F11] |  | 41
44 | Cc1ccc(-c2noc(C3CC(F)(F)C3)n2)cc1NC(=O)c1cnc2cc(-c3c[nH]nn3)ccn12 [F65, N-(5-(5-(3,3-difluorocyclobutyl)-1,2,4-oxadiazol-3-yl)-2-methylphenyl)-7-(1H-1,2,3-triazol-4-yl)imidazo[1,2-a]pyridine-3-carboxamide] | 13 | 
45 | [2H]c1c([2H])c([2H])n2c(C(=O)Nc3cc(-c4noc(C5CC(F)(F)C5)n4)ccc3C)cnc2c1[2H] [F92] | 35 | 
46 | Cc1ccc(-c2noc(C3CC(F)(F)C3)n2)cc1NC(=O)c1cnc2ccc(COCCF)cn12 [F176, N-(5-(5-(3,3-difluorocyclobutyl)-1,2,4-oxadiazol-3-yl)-2-methylphenyl)-6-((2-fluoroethoxy)methyl)imidazo[1,2-a]pyridine-3-carboxamide] | 67 | 
47 | Cc1ccc(-c2noc(C3CC(F)(F)C3)n2)cc1NC(=O)c1cnc2cc(C3CCNCC3)ccn12 [F169] | 539 | 
48 | Cc1ccc(-c2noc([C@H]3C[C@](O)(C(F)(F)F)C3)n2)cc1NC(=O)c1cnc2ccc(F)cn12 [F90] | 40 | 
49 | Cc1ccc(-c2noc(C3CC(F)(F)C3)n2)cc1NC(=O)c1cnc2cc(N3CCOC3=O)ccn12 [F68] | 39 | 
50 | Cc1ccc(-c2noc(C3CC(F)(F)C3)n2)cc1NC(=O)c1cnc2ccc(-c3cnn(C)c3)cn12 [F42] | 7 | 
51 | [2H]C([2H])([2H])c1ccn2c(C(=O)Nc3cc(-c4noc(C5CC(F)(F)C5)n4)ccc3C)cnc2c1 [F80] | 19 | 
52 | Cc1ccc(-c2noc(C3(CO)CC3)n2)cc1NC(=O)c1cnc2ccccn12 [F139] | 137 | 
53 | C=C1CC(c2nc(-c3ccc(F)c(NC(=O)c4cnc5ccccn45)c3)no2)C1 [F138] | 103 | 
54 | Cc1ccc(-c2noc(C3CC4(CCCO4)C3)n2)cc1NC(=O)c1cnc2ccccn12 (stereo not drawn) [F33] | 88 | 
55 | Cc1ccc(-c2noc(C3CC(F)(F)C3)n2)cc1NC(=O)c1cnc2ccc(CC(C)(C)O)cn12 [F153] | 165 | 
56 | Cc1ccc(-c2noc(C3CC(n4cncn4)C3)n2)cc1NC(=O)c1cnc2ccccn12 (stereo not drawn) [F150] | 167 | 
57 | Cc1ccc(-c2noc(C3CC(F)(F)C3)n2)cc1NC(=O)c1cnc2ccc(-c3cnn(CC(C)(C)O)c3)cn12 [F44] | 6 | 
58 | Cc1ccc(-c2noc(C3(N)CCC3)n2)cc1NC(=O)c1cnc2ccccn12 [F137] | 197 | 
59 | Cc1ccc2ncc(C(=O)Nc3cc(-c4noc(COC5CC(F)(F)C5(F)F)n4)ccc3C)n2c1 (stereo not drawn) [F103] | 16 | 
60 | CO/N=C1/CCC(c2nc(-c3ccc(C)c(NC(=O)c4cnc5ccccn45)c3)no2)C1 (stereo not drawn) [F117] | 203 | 
61 | Cc1ccc(-c2noc(CNC(=O)C3CC3(F)F)n2)cc1NC(=O)c1cnc2ccccn12 (stereo not drawn) [F140] | 132 | 
62 | Cc1ccc(-c2noc(CNC3CC(F)(F)C3)n2)cc1NC(=O)c1cnc2ccccn12 [F34] | 16 | 
63 | Cc1ccc(-c2noc(C3CCCC3)n2)cc1NC(=O)c1cnc2ccccn12 [F74] | 33 | 
